These results are taken from patent US20240092784A1, “CONDENSED HETEROCYCLIC COMPOUND” (NISSAN CHEMICAL CORPORATION, priority 2020, published 2024).

Each structure is given as a SMILES string. Where a name gives a salt, the structure may show the parent alone.

Chain of human SPR (P35270 whole entry): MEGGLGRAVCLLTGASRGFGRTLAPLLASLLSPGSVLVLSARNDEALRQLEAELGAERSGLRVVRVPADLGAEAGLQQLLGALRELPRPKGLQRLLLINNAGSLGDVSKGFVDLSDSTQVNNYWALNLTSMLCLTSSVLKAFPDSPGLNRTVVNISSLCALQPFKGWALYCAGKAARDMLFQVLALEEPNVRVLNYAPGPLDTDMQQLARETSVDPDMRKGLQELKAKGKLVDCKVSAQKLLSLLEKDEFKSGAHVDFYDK

The target of one test is human SPR (Homo sapiens (Human), UniProt P35270). The test can be described thus: Evaluation Example 2: Measurement of human SPR inhibitory activity (seven concentrations, sepiapterin absorbance at 420 nm). The class given is biochemical. Particulars: Evaluation Example 2, seven concentrations 0.14 nM to 100 nM, 240 minutes at room temperature, read-out: IC50. The method in brief:
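Reactions ran 240 min at room temperature in 100 mM Tris-HCl pH 7.5 with 0.01% BSA. They contained tag-cleaved, E. coli-expressed full-length human SPR (diluted to 150 ng/mL), seven compound concentrations from 0.14 to 100 nM, and sepiapterin/NADPH added as a 120 μM/160 μM solution. Inhibition was calculated from sepiapterin absorbance at 420 nm.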
On to `Cc1cnc(Nc2cc3n(CC(C)(C)C)c(=O)c(C(=O)NC4CC4)c(O)n3n2)cn1` [Synthesis Example 333, N-Cyclopropyl-7-hydroxy-2-((5-methylpyrazin-2-yl)amino)-4-neopentyl-5-oxo-4,5-dihydropyrazolo[1,5-a]pyrimidine-6-carboxamide], for which the IC50 was 1.86 nM.

Regarding `CC(C)(C)Cn1c(=O)c(C(=O)NC2CC2)c(O)n2nc(-c3cnc(N)nc3)cc12` [Synthesis Example 289, 2-(2-Aminopyrimidin-5-yl)-N-cyclopropyl-7-hydroxy-4-neopentyl-5-oxo-4,5-dihydropyrazolo[1,5-a]pyrimidine-6-carboxamide], the IC50 stood at 2.05 nM.

`CC(C)(C)Cn1c(=O)c(C(=O)NC2CC2)c(O)n2nc(Nc3cnc(C(=O)N4CC[C@H](O)C4)cn3)cc12` [Synthesis Example 360, (S)-N-Cyclopropyl-7-hydroxy-2-((5-(3-hydroxypyrrolidine-1-carbonyl)pyrazin-2-yl)amino)-4-neopentyl-5-oxo-4,5-dihydropyrazolo[1,5-a]pyrimidine-6-carboxamide]: the IC50 worked out at 0.76 nM.

With `Cc1nn2c(O)c(C(=O)NC3CC3)c(=O)n(CC(C)C)c2c1/C=C/C(=O)N1CC[C@H](C(C)(C)O)C1` [Synthesis Example 623, (S,E)-N-Cyclopropyl-7-hydroxy-3-(3-(3-(2-hydroxypropan-2-yl)pyrrolidine-1-yl)-3-oxoprop-1-en-1-yl)-4-isobutyl-2-methyl-5-oxo-4,5-dihydropyrazolo[1,5-a]pyrimidine-6-carboxamide], the IC50 is 1.27 nM.

Take `COC[C@H]1COCCN1C(=O)/C=C/c1cnn2c(O)c(C(=O)NC3CC3)c(=O)n(CC3(F)CC3)c12` [Synthesis Example 382, (S,E)-N-cyclopropyl-4-((1-fluorocyclopropyl)methyl)-7-hydroxy-3-(3-(3-(methoxymethyl)morpholino)-3-oxoprop-1-en-1-yl)-5-oxo-4,5-dihydropyrazolo[1,5-a]pyrimidine-6-carboxamide]: the IC50 was determined as 0.87 nM.

With `CC(C)(C)Cn1c(=O)c(C(=O)NC2CC2)c(O)n2nc(-c3cn[nH]c3C#N)cc12` [Synthesis Example 301], the IC50 came out at 1.22 nM.

In the case of `CC(C)Cn1c(=O)c(C(=O)NC2CC2)c(O)n2ncc(/C=C/C(=O)N3CCC[C@H]3C(N)=O)c12` [compound 486, (S,E)-3-(3-(2-Carbamoylpyrrolidin-1-yl)-3-oxoprop-1-en-1-yl)-N-cyclopropyl-7-hydroxy-4-isobutyl-5-oxo-4,5-dihydropyrazolo[1,5-a]pyrimidine-6-carboxamide], the IC50 is 0.92 nM.

With `CC(C)Cn1c(=O)c(C(=O)NC2CC2)c(O)n2ncc(C(=O)NCc3ccccc3F)c12` [Synthesis Example 233, N6-Cyclopropyl-N3-(2-fluorobenzyl)-7-hydroxy-4-isobutyl-5-oxo-4,5-dihydropyrazolo[1,5-a]pyrimidine-3,6-dicarboxamide], the IC50 was found to be 1.03 nM.

Take `CC(C)Cn1c(=O)c(C(=O)NC2CC2)c(O)n2ncc(CC(=O)N3CCOCC3)c12` [Synthesis Example 264, N-Cyclopropyl-7-hydroxy-4-isobutyl-3-(2-morpholino-2-oxoethyl)-5-oxo-4,5-dihydropyrazolo[1,5-a]pyrimidine-6-carboxamide]: the IC50 amounted to 0.95 nM.

As for `Cc1cn[nH]c1-c1cc2n(CC(C)(C)C)c(=O)c(C(=O)NC3CC3)c(O)n2n1` [Synthesis Example 287, N-Cyclopropyl-7-hydroxy-2-(4-methyl-1H-pyrazol-5-yl)-4-neopentyl-5-oxo-4,5-dihydropyrazolo[1,5-a]pyrimidine-6-carboxamide], the IC50 was 2.53 nM.

Consider `CC(C)(C)Cn1c(=O)c(C(=O)NC2CC2)c(O)n2nc(-c3n[nH]c4ncccc34)cc12` [Synthesis Example 306], for which the IC50 amounted to 9.43 nM.

Take `Cc1nnc(/C=C/c2cnn3c(O)c(C(=O)NC4CC4)c(=O)n(CC(C)C)c23)s1` [Synthesis Example 268, (E)-N-Cyclopropyl-7-hydroxy-4-isobutyl-3-(2-(5-methyl-1,3,4-thiadiazol-2-yl)vinyl)-5-oxo-4,5-dihydropyrazolo[1,5-a]pyrimidine-6-carboxamide]: the IC50 turned out to be 1.04 nM.

`CC(C)/C=C/c1c(N)nn2c(O)c(C(=O)NC3CC3)c(=O)n(CC(C)(C)C)c12` [Synthesis Example 442, (E)-2-Amino-N-cyclopropyl-7-hydroxy-3-(3-methylbut-1-en-1-yl)-4-neopentyl-5-oxo-4,5-dihydropyrazolo[1,5-a]pyrimidine-6-carboxamide hydrochloride]: the IC50 came to 1.53 nM.

For `CC(C)Cn1c(=O)c(C(=O)NC2CC2)c(O)n2ncc(/C=C/C(=O)N3CCC(C#N)CC3)c12` [compound 468], the IC50 was determined as 0.84 nM.

In the case of `Cc1nn2c(O)c(C(=O)NC3CC3)c(=O)n(CC(C)C)c2c1/C=C/C(=O)N1CCC(F)(F)C1` [compound 565, (E)-N-Cyclopropyl-3-(3-(3,3-difluoropyrrolidin-1-yl)-3-oxoprop-1-en-1-yl)-7-hydroxy-4-isobutyl-2-methyl-5-oxo-4,5-dihydropyrazolo[1,5-a]pyrimidine-6-carboxamide], the IC50 came to 0.93 nM.

In the case of `Cc1nn2c(O)c(C(=O)NC3CC3)c(=O)n(CC(C)C)c2c1/C=C/C(=O)N1CCCC12CCN(CC(F)(F)F)CC2` [Synthesis Example 666, (E)-N-Cyclopropyl-7-hydroxy-4-isobutyl-2-methyl-5-oxo-3-(3-oxo-3-(8-(2,2,2-trifluoroethyl)-1,8-diazaspiro[4.5]decan-1-yl)prop-1-en-1-yl)-4,5-dihydropyrazolo[1,5-a]pyrimidine-6-carboxamide], the IC50 came out at 2.14 nM.

`C/C(=C\c1cnn2c(O)c(C(=O)NC3CC3)c(=O)n(CC(C)C)c12)C(=O)N1CCN(C2CC(F)(F)C2)CC1` [Synthesis Example 255, (E)-N-Cyclopropyl-3-(3-(4-(3,3-difluorocyclobutyl)piperazin-1-yl)-2-methyl-3-oxoprop-1-en-1-yl)-7-hydroxy-4-isobutyl-5-oxo-4,5-dihydropyrazolo[1,5-a]pyrimidine-6-carboxamide]: the IC50 was determined as 1.02 nM.

With `CC(C)Cn1c(=O)c(C(=O)NC2CC2)c(O)n2nc(/N=C/N(C)C)cc12` [Synthesis Example 363, (E)-N-Cyclopropyl-2-(((dimethylamino)methylene)amino)-7-hydroxy-4-isobutyl-5-oxo-4,5-dihydropyrazolo[1,5-a]pyrimidine-6-carboxamide hydrochloride], the IC50 is 1.61 nM.

Turning to `CC(C)(C)Cn1c(=O)c(C(=O)NC2CC2)c(O)n2nc3c(c12)CN(C1CC1)C(=O)N3` [Synthesis Example 408, N,3-Dicyclopropyl-8-hydroxy-5-neopentyl-2,6-dioxo-1,2,3,4,5,6-hexahydropyrazolo[1,5-a:3,4-d′]dipyrimidine-7-carboxamide], the IC50 came out at 0.83 nM.

On to `CC1(Cn2c(=O)c(C(=O)NC3CC3)c(O)n3ncc(/C=C/C(=O)N4CC5CCC(C4)O5)c23)CC1` [Synthesis Example 368, (E)-3-(3-(8-Oxa-3-azabicyclo[3.2.1]octan-3-yl)-3-oxoprop-1-en-1-yl)-N-cyclopropyl-7-hydroxy-4-((1-methylcyclopropyl)methyl)-5-oxo-4,5-dihydropyrazolo[1,5-a]pyrimidine-6-carboxamide], for which the IC50 is 0.61 nM.

As to `CC(C)Cn1c(=O)c(C(=O)NC2CC2)c(O)n2ncc(/C=C/C(=O)N3CC4CCC(C3)O4)c12` [compound 456, (E)-3-(3-(8-Oxa-3-azabicyclo[3.2.1]octan-3-yl)-3-oxoprop-1-en-1-yl)-N-cyclopropyl-7-hydroxy-4-isobutyl-5-oxo-4,5-dihydropyrazolo[1,5-a]pyrimidine-6-carboxamide], the IC50 is 0.58 nM.

Take `Cc1nn2c(O)c(C(=O)NC3CC3)c(=O)n(CC(C)C)c2c1/C=C/C(=O)N1C[C@H](C)OC[C@@H]1C` [Synthesis Example 645, N-Cyclopropyl-3-((E)-3-((2S,5S)-2,5-dimethylmorpholino)-3-oxoprop-1-en-1-yl)-7-hydroxy-4-isobutyl-2-methyl-5-oxo-4,5-dihydropyrazolo[1,5-a]pyrimidine-6-carboxamide]: the IC50 was 0.8 nM.

The test is the same for the next values; noted with them: sepiapterin absorbance, Table 41, read-out: concentration at 50% inhibition of human SPR (IC50).
As to `CC(C)Cn1c(=O)c(C(=O)NC2CC2)c(O)n2ncc(/C=C/C(=O)N3C[C@H]4COC[C@H]4C3)c12` [Synthesis Example 708, N-Cyclopropyl-7-hydroxy-4-isobutyl-5-oxo-3-((E)-3-oxo-3-((3aR,6aS)-tetrahydro-1H-furo[3,4-c]pyrrol-5(3H)-yl)prop-1-en-1-yl)-4,5-dihydropyrazolo[1,5-a]pyrimidine-6-carboxamide], the IC50 came out at 0.74 nM.

Regarding `CC(C)Cn1c(=O)c(C(=O)NC2CC2)c(O)n2ncc(/C=C/C(=O)N3CC4CCC(C3)C4(F)F)c12` [Synthesis Example 720, (E)-N-Cyclopropyl-3-(3-(8,8-difluoro-3-azabicyclo[3.2.1]octan-3-yl)-3-oxoprop-1-en-1-yl)-7-hydroxy-4-isobutyl-5-oxo-4,5-dihydropyrazolo[1,5-a]pyrimidine-6-carboxamide], the IC50 is 1.03 nM.

On to `CC(C)Cn1c(=O)c(C(=O)NC2CC2)c(O)n2ncc(/C=C/C(=O)N3CCc4cc(Br)ccc43)c12` [Synthesis Example 735, (E)-3-(3-(5-Bromoindolin-1-yl)-3-oxoprop-1-en-1-yl)-N-cyclopropyl-7-hydroxy-4-isobutyl-5-oxo-4,5-dihydropyrazolo[1,5-a]pyrimidine-6-carboxamide], for which the IC50 was found to be 7.3 nM.

Regarding `Cc1nn2c(O)c(C(=O)NC3CC3)c(=O)n(CC(C)C)c2c1/C=C/C(=O)N1CCc2ccncc21` [Synthesis Example 699, (E)-N-Cyclopropyl-3-(3-(2,3-dihydro-1H-pyrrolo[2,3-c]pyridin-1-yl)-3-oxoprop-1-en-1-yl)-7-hydroxy-4-isobutyl-2-methyl-5-oxo-4,5-dihydropyrazolo[1,5-a]pyrimidine-6-carboxamide], the IC50 came to 1.47 nM.
